Assay results reported in PubChem BioAssay AID1918999 (Molecular Pharmacology Branch, DTP, NCI, 2023).

System: 556581-035-R-J1-PDC complex spheroid growth
Experiment: Anticancer human tumor 556581-035-R-J1-PDC patient-derived ovarian carcinoma cell line growth inhibition [AhR]
Details: for IC50: curve of first compound; for viability, T/C: stronger effect = lower value
Summary of the method: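 Complex tumor spheroids co-cultured with HUVEC and human MSC stroma; AhR antagonists tested in combination with standard-of-care and investigational agents. Top concentration at or near clinical Cmax (else 10 microM), half-log dilutions; growth expressed as percent test/control.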

[1] = second compound 0.1 µM, first compound 0.0316 µM
[2] = second compound 0.1 µM, first compound 0.1 µM
[3] = second compound 0.1 µM, first compound 0.316 µM
[4] = second compound 0.1 µM, first compound 1 µM
[5] = second compound 0.1 µM, first compound 3.16 µM
[6] = second compound 0.1 µM, first compound 10 µM
[7] = second compound 0.316 µM, first compound 0.0316 µM
[8] = second compound 0.316 µM, first compound 0.1 µM
[9] = second compound 0.316 µM, first compound 0.316 µM
[10] = second compound 0.316 µM, first compound 1 µM
[11] = second compound 0.316 µM, first compound 3.16 µM
[12] = second compound 0.316 µM, first compound 10 µM
[13] = second compound 1 µM, first compound 0.0316 µM
[14] = second compound 1 µM, first compound 0.1 µM
[15] = second compound 1 µM, first compound 0.316 µM
[16] = second compound 1 µM, first compound 1 µM
[17] = second compound 1 µM, first compound 3.16 µM
[18] = second compound 1 µM, first compound 10 µM
[19] = second compound 3.16 µM, first compound 0.0316 µM
[20] = second compound 3.16 µM, first compound 0.1 µM
[21] = second compound 3.16 µM, first compound 0.316 µM
[22] = second compound 3.16 µM, first compound 1 µM
[23] = second compound 3.16 µM, first compound 3.16 µM
[24] = second compound 3.16 µM, first compound 10 µM
[25] = second compound 10 µM, first compound 0.0316 µM
[26] = second compound 10 µM, first compound 0.1 µM
[27] = second compound 10 µM, first compound 0.316 µM
[28] = second compound 10 µM, first compound 1 µM
[29] = second compound 10 µM, first compound 3.16 µM
[30] = second compound 10 µM, first compound 10 µM
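For viability, T/C in this document: compound exposure lasted 7 days; 100% = DMSO vehicle control growth.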

SMILES | IC50 (second compound 0.1 µM) [µM] | IC50 (second compound 0.316 µM) [µM] | IC50 (second compound 1 µM) [µM] | IC50 (second compound 3.16 µM) [µM] | IC50 (second compound 10 µM) [µM] | viability, T/C [1] [%] | viability, T/C [2] [%] | viability, T/C [3] [%] | viability, T/C [4] [%] | viability, T/C [5] [%] | viability, T/C [6] [%] | viability, T/C [7] [%] | viability, T/C [8] [%] | viability, T/C [9] [%] | viability, T/C [13] [%] | viability, T/C [14] [%] | viability, T/C [19] [%] | viability, T/C [20] [%] | viability, T/C [25] [%] | viability, T/C [26] [%] | other results
CC1(C)CCC(CN2CCN(c3ccc(C(=O)NS(=O)(=O)c4ccc(NCC5CCOCC5)c([N+](=O)[O-])c4)c(Oc4cnc5[nH]ccc5c4)c3)CC2)=C(c2ccc(Cl)cc2)C1 + Cc1ccccc1N=Nc1ccc(NC(=O)c2ccnn2C)c(C)c1 | > 10 | > 10 | > 10 | > 10 | > 10 | 97.1 | 108 | 106 | 103 | 106 | 82.4 | 99.3 | 105 | 113 | 102 | 101 | 96.7 | 97.1 | 101 | 97.5 | viability, T/C [10]: 99.6%; viability, T/C [11]: 108%; viability, T/C [12]: 85.9%; viability, T/C [15]: 109%; viability, T/C [16]: 98.3%; viability, T/C [17]: 97.5%; viability, T/C [18]: 78.1%; viability, T/C [21]: 97.7%; viability, T/C [22]: 97.9%; viability, T/C [23]: 103%; viability, T/C [24]: 90.3%; viability, T/C [27]: 97.6%; viability, T/C [28]: 95.6%; viability, T/C [29]: 86.7%; viability, T/C [30]: 77.2%
COc1cc(Nc2ncc3c(n2)-c2ccc(Cl)cc2C(c2c(F)cccc2OC)=NC3)ccc1C(=O)O + Cc1ccccc1N=Nc1ccc(NC(=O)c2ccnn2C)c(C)c1 | > 10 | > 10 | > 10 | > 10 | > 10 | 83.8 | 72.4 | 69.2 | 61.4 | 60.4 | 59.4 | 78 | 73.5 | 68.5 | 80.5 | 73.2 | 67.2 | 66.2 | 70.2 | 61.9 | viability, T/C [10]: 56.6%; viability, T/C [11]: 61.1%; viability, T/C [12]: 48.7%; viability, T/C [15]: 69%; viability, T/C [16]: 62.8%; viability, T/C [17]: 64.7%; viability, T/C [18]: 54.9%; viability, T/C [21]: 57.6%; viability, T/C [22]: 58.1%; viability, T/C [23]: 58.6%; viability, T/C [24]: 49.2%; viability, T/C [27]: 62.1%; viability, T/C [28]: 66%; viability, T/C [29]: 57.6%; viability, T/C [30]: 56.8%
Cn1ncnc1C1c2n[nH]c(=O)c3cc(F)cc(c23)NC1c1ccc(F)cc1 (stereo not given) + Cc1ccccc1N=Nc1ccc(NC(=O)c2ccnn2C)c(C)c1 | > 0.1 | > 0.1 | > 0.1 | > 0.1 | > 0.1 | 94.9 | 97.4 |  |  |  |  | 104 | 94.3 |  | 97.8 | 105 | 104 | 111 | 93.8 | 92.3 | viability, T/C (second compound 0.1 µM, first compound 0.000316 µM): 102%; viability, T/C (second compound 0.1 µM, first compound 0.001 µM): 112%; viability, T/C (second compound 0.1 µM, first compound 0.00316 µM): 103%; viability, T/C (second compound 0.1 µM, first compound 0.01 µM): 105%; viability, T/C (second compound 0.316 µM, first compound 0.000316 µM): 112%; viability, T/C (second compound 0.316 µM, first compound 0.001 µM): 114%; viability, T/C (second compound 0.316 µM, first compound 0.00316 µM): 113%; viability, T/C (second compound 0.316 µM, first compound 0.01 µM): 103%; viability, T/C (second compound 1 µM, first compound 0.000316 µM): 116%; viability, T/C (second compound 1 µM, first compound 0.001 µM): 99.6%; viability, T/C (second compound 1 µM, first compound 0.00316 µM): 109%; viability, T/C (second compound 1 µM, first compound 0.01 µM): 100%; viability, T/C (second compound 3.16 µM, first compound 0.000316 µM): 110%; viability, T/C (second compound 3.16 µM, first compound 0.001 µM): 101%; viability, T/C (second compound 3.16 µM, first compound 0.00316 µM): 94.6%; viability, T/C (second compound 3.16 µM, first compound 0.01 µM): 96.5%; viability, T/C (second compound 10 µM, first compound 0.000316 µM): 92.2%; viability, T/C (second compound 10 µM, first compound 0.001 µM): 108%; viability, T/C (second compound 10 µM, first compound 0.00316 µM): 89.8%; viability, T/C (second compound 10 µM, first compound 0.01 µM): 98.8%
NS(=O)(=O)OCC1CC(n2ccc3c(NC4CCc5ccccc54)ncnc32)CC1O (stereo not given) + Cc1ccccc1N=Nc1ccc(NC(=O)c2ccnn2C)c(C)c1 | > 10 | > 10 | > 10 | > 10 | > 10 | 101 | 103 | 103 | 108 | 106 | 82.2 | 105 | 104 | 97.2 | 92.9 | 102 | 97.1 | 96.5 | 91.3 | 80 | viability, T/C [10]: 103%; viability, T/C [11]: 93.9%; viability, T/C [12]: 80.2%; viability, T/C [15]: 101%; viability, T/C [16]: 101%; viability, T/C [17]: 95.7%; viability, T/C [18]: 79.7%; viability, T/C [21]: 89.3%; viability, T/C [22]: 89.7%; viability, T/C [23]: 88.8%; viability, T/C [24]: 73.3%; viability, T/C [27]: 89.8%; viability, T/C [28]: 88.2%; viability, T/C [29]: 83.6%; viability, T/C [30]: 69.6%
